Earlier results, collected in patent US20220000160A1, “FLAVONOID DELIVERY SYSTEM” (priority 2019, published 2022).

Structure (SMILES): C[C@@H]1O[C@@H](OC[C@H]2O[C@@H](Oc3c(-c4ccc(O)c(O)c4)oc4cc(O)cc(O)c4c3=O)[C@H](O)[C@@H](O)[C@@H]2O)[C@H](O)[C@H](O)[C@H]1O [Free rutin, quercetin-3-rhamnosylglucoside]
- solubility in ethanol: about 4 % w/v
